Results on 2 compounds are retold here after patent US5145781A (priority 1989, dated 1992).

In one series the test system is alpha-glucosidase. The series is described as follows: Hydrolysis by alpha-glucosidase from pig liver. The format is biochemical. The note with it: alpha-glucosidase extracted from pig liver, partially purified.
The subject of another series is 7 week-old dd mice. The series can be described thus: Acute toxicity test, oral administration to mice. The format is in vivo. The following applies: orally administered.
The conditions of series [1]: cited from earlier work.
The nature of series [2]: Water-solubility, light-resistance and stability (general statements). The format is physicochemical.

As for `C[C@@H]1O[C@@H](OC[C@H]2O[C@@H](Oc3c(-c4ccc(O)c(O)c4)oc4cc(O)cc(O)c4c3=O)[C@H](O)[C@@H](O)[C@@H]2O[C@H]2O[C@H](CO)[C@@H](O)[C@H](O)[C@H]2O)[C@H](O)[C@H](O)[C@H]1O` [Example A-2, alpha-glucosyl rutin], the hydrolysis by alpha-glucosidase result in the series with alpha-glucosidase is “hydrolyzed the alphaglucosyl rutin into rutin and D-glucose”. In addition, the “acute toxicity, in words” value in the series with 7 week-old dd mice is “extremely low”. Further, in the series with 7 week-old dd mice (up to 5g, higher dose was difficult), the mortality entry is on record as “the same result”.

With `C[C@@H]1O[C@@H](OC[C@H]2O[C@@H](Oc3c(-c4ccc(O)c(O)c4)oc4cc(O)cc(O)c4c3=O)[C@H](O)[C@@H](O)[C@@H]2O)[C@H](O)[C@H](O)[C@H]1O` [rutin], in series [1] (ambient temperature), the solubility in water entry is listed as “about 0.01 w/v %”. Further, the “solubility in water, in words” value in series [1] is listed as “hardly soluble in water”. Also, the “stability in an alkaline solution” value in series [2] is “tends to readily decompose”.
